Assay results published in patent US20230085307A1, “PYRIDAZINONE COMPOUND AND HERBICIDE” (NISSAN CHEMICAL CORPORATION, priority 2019, published 2023).

What was measured:
[1] = tested on: chickweed; experiment: Test Example 5: herbicidal effect by foliage application, plastic box (Table 20, symbol P); format: in vivo, common chickweed (Stellaria media); conditions: 320 g/ha; for P: chickweed, herbicidal effect grade: foliage application, three weeks after application
How it was run: (§1)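 Post-emergence foliar test in sterilized diluvial soil. Compound applied as water-diluted emulsion at a predetermined rate to 14-day-old plants; evaluation at three weeks.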

[2] = tested on: Italian ryegrass; experiment: Test Example 5: herbicidal effect by foliage application, plastic box (Table 20, symbol K); format: in vivo, Italian ryegrass (Lolium multiflorum); conditions: 320 g/ha; for K: Italian ryegrass, herbicidal effect grade: foliage application, three weeks after application
How it was run: as §1

[3] = tested on: late watergrass; experiment: Test Example 1: herbicidal activity, application before weed generation under submerged conditions (Table 16, symbol A); format: in vivo, late watergrass (Echinochloa oryzicola); conditions: amount of applied herbicide 320 g/ha
How it was run: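 Emulsion formulation, water-diluted to set dose, was put onto the flooded surface (4 cm depth, alluvial soil) the same day weeds were sown and 2.5-leaf rice transplanted. After 3 weeks at 25-30 °C under glass, each species was rated 0 (≤5% kill) to 5 (≥90% kill).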

[4] = tested on: wild oat; experiment: Test Example 4: herbicidal effect by soil treatment (Table 19, symbol I); format: in vivo, wild oat (Avena fatua); conditions: amount of applied herbicide 320 g/ha
How it was run: (§2)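 Emulsion of test compound, water-diluted to predetermined amount, sprayed on soil after sowing (seed depth ~1.5 cm, sterilized diluvial soil). Greenhouse, 25–30° C. Effect graded at three weeks post-spray.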

[5] = tested on: rice flat sedge; experiment: Test Example 3: herbicidal effect by foliage application, Wagner pot (Table 18, symbol E); format: in vivo, rice flat sedge (Cyperus iria); conditions: 320 g/ha
How it was run: (§3)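 Plants were sown in alluvial soil held under 0.1–0.5 cm standing water and grown 14 days in a greenhouse at 25–30 °C. An emulsifiable formulation, water-diluted to the set dose, was then sprayed onto the foliage, and effects were scored three weeks later using previously defined criteria.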

[6] = tested on: green foxtail; experiment: Test Example 4: herbicidal effect by soil treatment (Table 19, symbol G); format: in vivo, green foxtail (Setaria viridis); conditions: amount of applied herbicide 320 g/ha
How it was run: as §2

[7] = tested on: Italian ryegrass; experiment: Test Example 4: herbicidal effect by soil treatment (Table 19, symbol K); format: in vivo, Italian ryegrass (Lolium multiflorum); conditions: amount of applied herbicide 320 g/ha
How it was run: as §2

[8] = tested on: velvetleaf; experiment: Test Example 5: herbicidal effect by foliage application, plastic box (Table 20, symbol M); format: in vivo, velvetleaf (Abutilon theophrasti); conditions: 320 g/ha; for M: velvetleaf, herbicidal effect grade: foliage application, three weeks after application
How it was run: as §1

[9] = tested on: barnyard grass; experiment: Test Example 5: herbicidal effect by foliage application, plastic box (Table 20, symbol H); format: in vivo, barnyard grass (Echinochloa crus-galli); conditions: 320 g/ha; for H: barnyard grass, herbicidal effect grade: foliage application, three weeks after application
How it was run: as §1

[10] = tested on: oval-leafed pondweed; experiment: Test Example 2: herbicidal activity, application during weed generation under submerged conditions (Table 17, symbol C); format: in vivo, oval-leafed pondweed (Monochoria vaginalis); conditions: AAH 320 g/ha; application during weed generation, submerged conditions
How it was run: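 In this pot test, flooded alluvial soil (water depth 4 cm) holds all three species sown as a mixture. Once seedlings have one to two leaves, the compound's emulsion, thinned with water to the intended dose, is poured on the water; grading follows after three weeks on the earlier criteria.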

[11] = tested on: velvetleaf; experiment: Test Example 4: herbicidal effect by soil treatment (Table 19, symbol M); format: in vivo, velvetleaf (Abutilon theophrasti); conditions: amount of applied herbicide 320 g/ha
How it was run: as §2

[12] = tested on: windgrass; experiment: Test Example 5: herbicidal effect by foliage application, plastic box (Table 20, symbol L); format: in vivo, windgrass (Apera spica-venti); conditions: 320 g/ha; for L: windgrass, herbicidal effect grade: foliage application, three weeks after application
How it was run: as §1

[13] = tested on: Chinese sprangletop; experiment: Test Example 3: herbicidal effect by foliage application, Wagner pot (Table 18, symbol D); format: in vivo, chinese sprangletop (Leptochloa chinensis); conditions: 320 g/ha
How it was run: as §3

[14] = tested on: persian speedwell; experiment: Test Example 4: herbicidal effect by soil treatment (Table 19, symbol R); format: in vivo, Persian speedwell (Veronica persica); conditions: amount of applied herbicide 320 g/ha
How it was run: as §2

[15] = tested on: lambsquarters; experiment: Test Example 4: herbicidal effect by soil treatment (Table 19, symbol O); format: in vivo, lambsquarters (Chenopodium album); conditions: amount of applied herbicide 320 g/ha
How it was run: as §2

[16] = tested on: windgrass; experiment: Test Example 4: herbicidal effect by soil treatment (Table 19, symbol L); format: in vivo, windgrass (Apera spica-venti); conditions: amount of applied herbicide 320 g/ha
How it was run: as §2

[17] = foliage application after 14-day growth, evaluated three weeks after application

SMILES: CCCC(=O)Oc1c(C)nn(C)c(=O)c1-c1c(-c2ccc(F)cc2OCC)sc2cc(Cl)ccc12 [3-046]
- P: chickweed, herbicidal effect grade [1]: 5 (Herbicidal rate of 90% or more (almost completely withered))
- K: Italian ryegrass, herbicidal effect grade [2]: 0 (Herbicidal rate of 5% or less (almost no effect))
- Herbicidal effect, A: late watergrass [3]: 4 (Herbicidal rate of 70% or more and less than 90%)
- I: wild oat, herbicidal effect grade [4]: 0 (Herbicidal rate of 5% or less (almost no effect))
- herbicidal effect on rice flat sedge (E) [5]: 5 (Herbicidal rate of 90% or more (almost completely withered))
- G: green foxtail, herbicidal effect grade [6]: 0 (Herbicidal rate of 5% or less (almost no effect))
- K: Italian ryegrass, herbicidal effect grade [7]: 0 (Herbicidal rate of 5% or less (almost no effect))
- M: velvetleaf, herbicidal effect grade [8]: 4 (Herbicidal rate of 70% or more and less than 90%)
- H: barnyard grass, herbicidal effect grade [9]: 5 (Herbicidal rate of 90% or more (almost completely withered))
- herbicidal effect rating, C: oval-leafed pondweed [10]: 1 (Herbicidal rate of 5% or more and less than 20%)
- M: velvetleaf, herbicidal effect grade [11]: 1 (Herbicidal rate of 5% or more and less than 20%)
- L: windgrass, herbicidal effect grade [12]: 4 (Herbicidal rate of 70% or more and less than 90%)
- herbicidal effect on Chinese sprangletop (D) [13]: 2 (Herbicidal rate of 20% or more and less than 40%)
- R: persian speedwell, herbicidal effect grade [14]: 4 (Herbicidal rate of 70% or more and less than 90%)
- O: lambsquarters, herbicidal effect grade [15]: 3 (Herbicidal rate of 40% or more and less than 70%)
- L: windgrass, herbicidal effect grade [16]: 5 (Herbicidal rate of 90% or more (almost completely withered))

SMILES: COCCOc1ccc2c(-c3c(O)c(C)nn(C)c3=O)c(-c3ccccc3OC)sc2c1 [3-121]
- P: chickweed, herbicidal effect grade [1]: 5 (Herbicidal rate of 90% or more (almost completely withered))
- K: Italian ryegrass, herbicidal effect grade [2]: 5 (Herbicidal rate of 90% or more (almost completely withered))
- Herbicidal effect, A: late watergrass [3]: 5 (Herbicidal rate of 90% or more (almost completely withered))
- I: wild oat, herbicidal effect grade [4]: 3 (Herbicidal rate of 40% or more and less than 70%)
- herbicidal effect on rice flat sedge (E) [5]: 5 (Herbicidal rate of 90% or more (almost completely withered))
- G: green foxtail, herbicidal effect grade [6]: 5 (Herbicidal rate of 90% or more (almost completely withered))
- K: Italian ryegrass, herbicidal effect grade [7]: 5 (Herbicidal rate of 90% or more (almost completely withered))
- M: velvetleaf, herbicidal effect grade [8]: 5 (Herbicidal rate of 90% or more (almost completely withered))
- H: barnyard grass, herbicidal effect grade [9]: 5 (Herbicidal rate of 90% or more (almost completely withered))
- herbicidal effect rating, C: oval-leafed pondweed [10]: 3 (Herbicidal rate of 40% or more and less than 70%)
- M: velvetleaf, herbicidal effect grade [11]: 5 (Herbicidal rate of 90% or more (almost completely withered))
- L: windgrass, herbicidal effect grade [12]: 5 (Herbicidal rate of 90% or more (almost completely withered))
- herbicidal effect on Chinese sprangletop (D) [13]: 4 (Herbicidal rate of 70% or more and less than 90%)
- R: persian speedwell, herbicidal effect grade [14]: 5 (Herbicidal rate of 90% or more (almost completely withered))
- O: lambsquarters, herbicidal effect grade [15]: 5 (Herbicidal rate of 90% or more (almost completely withered))
- L: windgrass, herbicidal effect grade [16]: 5 (Herbicidal rate of 90% or more (almost completely withered))

SMILES: CCCC(=O)Oc1c(C)nn(C)c(=O)c1-c1c(-c2ccc(C(F)(F)F)cc2)sc2c(F)cccc12 [4-045]
- herbicidal effect on P: chickweed (evaluation grade 0-5) [1, 17]: 5 (Herbicidal rate of 90% or more (almost completely withered))
- herbicidal effect on K: Italian ryegrass (evaluation grade 0-5) [2, 17]: 5 (Herbicidal rate of 90% or more (almost completely withered))
- Herbicidal effect, A: late watergrass [3]: 4 (Herbicidal rate of 70% or more and less than 90%)
- Herbicidal effect by soil treatment, I: wild oat [4]: 0 (Herbicidal rate of 5% or less (almost no effect))
- herbicidal effect on rice flat sedge (E) [5]: 5 (Herbicidal rate of 90% or more (almost completely withered))
- Herbicidal effect by soil treatment, G: green foxtail [6]: 0 (Herbicidal rate of 5% or less (almost no effect))
- Herbicidal effect by soil treatment, K: Italian ryegrass [7]: 0 (Herbicidal rate of 5% or less (almost no effect))
- herbicidal effect on M: velvetleaf (evaluation grade 0-5) [8, 17]: 4 (Herbicidal rate of 70% or more and less than 90%)
- herbicidal effect on H: barnyard grass (evaluation grade 0-5) [9, 17]: 2 (Herbicidal rate of 20% or more and less than 40%)
- herbicidal effect rating, C: oval-leafed pondweed [10]: 0 (Herbicidal rate of 5% or less (almost no effect))
- Herbicidal effect by soil treatment, M: velvetleaf [11]: 0 (Herbicidal rate of 5% or less (almost no effect))
- herbicidal effect on L: windgrass (evaluation grade 0-5) [12, 17]: 4 (Herbicidal rate of 70% or more and less than 90%)
- herbicidal effect on Chinese sprangletop (D) [13]: 3 (Herbicidal rate of 40% or more and less than 70%)
- Herbicidal effect by soil treatment, R: persian speedwell [14]: 3 (Herbicidal rate of 40% or more and less than 70%)
- Herbicidal effect by soil treatment, O: lambsquarters [15]: 0 (Herbicidal rate of 5% or less (almost no effect))
- Herbicidal effect by soil treatment, L: windgrass [16]: 3 (Herbicidal rate of 40% or more and less than 70%)

SMILES: COc1ccccc1-c1sc2cc(OCC(C)C)ccc2c1-c1c(O)c(C)nn(C)c1=O [3-107]
- P: chickweed, herbicidal effect grade [1]: 5 (Herbicidal rate of 90% or more (almost completely withered))
- K: Italian ryegrass, herbicidal effect grade [2]: 5 (Herbicidal rate of 90% or more (almost completely withered))
- Herbicidal effect, A: late watergrass [3]: 4 (Herbicidal rate of 70% or more and less than 90%)
- I: wild oat, herbicidal effect grade [4]: 0 (Herbicidal rate of 5% or less (almost no effect))
- herbicidal effect on rice flat sedge (E) [5]: 4 (Herbicidal rate of 70% or more and less than 90%)
- G: green foxtail, herbicidal effect grade [6]: 4 (Herbicidal rate of 70% or more and less than 90%)
- K: Italian ryegrass, herbicidal effect grade [7]: 5 (Herbicidal rate of 90% or more (almost completely withered))
- M: velvetleaf, herbicidal effect grade [8]: 5 (Herbicidal rate of 90% or more (almost completely withered))
- H: barnyard grass, herbicidal effect grade [9]: 3 (Herbicidal rate of 40% or more and less than 70%)
- herbicidal effect rating, C: oval-leafed pondweed [10]: 5 (Herbicidal rate of 90% or more (almost completely withered))
- M: velvetleaf, herbicidal effect grade [11]: 1 (Herbicidal rate of 5% or more and less than 20%)
- L: windgrass, herbicidal effect grade [12]: 5 (Herbicidal rate of 90% or more (almost completely withered))
- herbicidal effect on Chinese sprangletop (D) [13]: 3 (Herbicidal rate of 40% or more and less than 70%)
- R: persian speedwell, herbicidal effect grade [14]: 4 (Herbicidal rate of 70% or more and less than 90%)
- O: lambsquarters, herbicidal effect grade [15]: 5 (Herbicidal rate of 90% or more (almost completely withered))
- L: windgrass, herbicidal effect grade [16]: 0 (Herbicidal rate of 5% or less (almost no effect))
